Data on five compounds can be found in paper PMC6681824 (Biochemistry, 2019).

For one data set, the target named is T1, pol η (Homo sapiens, UniProt Q9Y253).
T1 sequence (Q9Y253 1-713): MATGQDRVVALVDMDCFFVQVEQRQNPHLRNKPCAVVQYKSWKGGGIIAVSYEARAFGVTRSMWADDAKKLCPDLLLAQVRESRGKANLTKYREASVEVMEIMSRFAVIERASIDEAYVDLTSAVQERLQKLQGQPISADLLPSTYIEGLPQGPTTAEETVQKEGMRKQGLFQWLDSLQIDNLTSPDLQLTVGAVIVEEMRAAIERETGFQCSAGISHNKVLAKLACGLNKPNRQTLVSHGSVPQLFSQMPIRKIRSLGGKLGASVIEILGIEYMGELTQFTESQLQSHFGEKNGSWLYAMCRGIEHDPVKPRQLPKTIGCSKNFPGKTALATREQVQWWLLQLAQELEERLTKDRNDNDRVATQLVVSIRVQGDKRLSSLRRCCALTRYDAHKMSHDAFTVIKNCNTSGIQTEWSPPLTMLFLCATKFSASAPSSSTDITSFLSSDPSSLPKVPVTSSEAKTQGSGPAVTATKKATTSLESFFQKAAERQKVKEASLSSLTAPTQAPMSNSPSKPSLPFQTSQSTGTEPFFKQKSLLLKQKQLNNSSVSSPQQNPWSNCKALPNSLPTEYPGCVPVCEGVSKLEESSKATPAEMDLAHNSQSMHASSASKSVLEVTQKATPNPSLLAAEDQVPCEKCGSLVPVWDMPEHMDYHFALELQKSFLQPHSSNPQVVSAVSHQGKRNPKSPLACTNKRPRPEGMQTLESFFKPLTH
Type of data set: biochemical. Particulars: for Kd: read-out: apparent Kd; for increase in G·T misincorporation rate constant (kpol), W versus B: G opposite T, W sequence compared to B sequence.

Data set [1] in a line: Potentiometric titration of leaving-group acids. The settings on record: 0.1 M KCl, 25 °C. The class given is physicochemical.
The mark [2] stands for this setting: A opposite T (correct), B sequence.
Where [3] appears, read: A opposite T (correct), W sequence.
The mark [4] stands for this setting: G opposite T (mispair), B sequence.
Setting [5] is: G opposite T (mispair), W sequence.

Values joined by “and” are separate entries in the source; they are usually repeats but may differ in a detail not shown here. Identical values can stand only once. Like-named read-outs stand apart in the source and are kept apart here.

With `Nc1ncnc2c1ncn2[C@H]1CC(O)[C@@H](COP(=O)(O)OP(=O)(O)C(F)P(=O)(O)O)O1` (stereo partly shown) [dATP-CHF], the Kd at pol η (setting [2]) came out at 190 ± 80 µM; on pol η (setting [3]), 140 ± 20 µM.

For `Nc1ncnc2c1ncn2[C@H]1C[C@H](O)[C@@H](COP(=O)(O)OP(=O)(O)OP(=O)(O)O)O1` [dATP], the Kd on pol η (setting [2]) worked out at 9.4 ± 3.1 µM; on pol η (setting [3]) it was 7.1 ± 2.1 µM.

On to `Nc1nc2c(ncn2[C@H]2C[C@H](O)[C@@H](COP(=O)(O)OP(=O)(O)OP(=O)(O)O)O2)c(=O)[nH]1` [dGTP], for which, at pol η (setting [4]), the “kpol (chemical misincorporation rate constant)” value is 0.21 ± 0.02 s⁻¹ and the Kd was 30 ± 3 µM. On pol η (setting [5]), the “kpol (chemical misincorporation rate constant)” value stood at 0.86 ± 0.02 s⁻¹ and the Kd was determined as 20 ± 4 µM. Moreover, on pol η, the “increase in G·T misincorporation rate constant (kpol), W versus B” value is ~ 4 fold and 3–4 fold and 4 fold.

On to `Nc1nc2c(ncn2C2CC(O)C(COP(=O)(O)OP(=O)(O)C(F)P(=O)(O)O)O2)c(=O)[nH]1` (stereo not shown) [dGTP-CHF], for which the “kpol (chemical misincorporation rate constant)” value worked out at 0.032 ± 0.005 s⁻¹ on pol η (setting [4]) and 0.12 ± 0.00 s⁻¹ on pol η (setting [5]). Besides, the “increase in G·T misincorporation rate constant (kpol), W versus B” value at pol η was 3.8 fold and 4 fold; on pol η (listed as CHF-dG) it was 3–4 fold. The Kd on pol η (setting [4]) came to 370 ± 60 µM; at pol η (setting [5]) it was 390 ± 20 µM.

In data set [1], `O=P(O)(O)NP(=O)(O)O` [imidodiphosphoric acid] gave a pKa1 of 2.01, a pKa2 of 2.81 and a pKa3 of 7.11. The “pKa4 (soln)” value in data set [1] (imidodiphosphoric acid (NH leaving group)) is 9.70.
